Assay results published in PMC5663708, “Novel Benzylidene Thiazolidinedione Derivatives as Partial PPARγ Agonists and their Antidiabetic Effects on Type 2 Diabetes” (Scientific Reports, 2017).
Where two headings read alike, the source gives them in different places.

What was measured:
human PPARγ (hPPARγ) = target: T1, human PPARγ (hPPARγ) (Homo sapiens, UniProt P37231); experiment: GAL-4 PPAR chimeric receptor transactivation assay in transiently transfected HepG2 cells; type: cell-based; settings: for EC50: Gal4-hPPARγ-LBD, HepG2 cells, concentration-response curve; for Emax: maximum induction of Rosiglitazone defined as 100%; for agonist activity on hPPARα, hPPARγ, hPPARβ/δ subtypes: tested at 5 μM and 25 μM, compared with reference agonists
T1 construct: expressed in transfected cells; host or cells: HepG2 (human hepatoblastoma), transient calcium phosphate transfection
T1 sequence (P37231 238-503 limits assumed): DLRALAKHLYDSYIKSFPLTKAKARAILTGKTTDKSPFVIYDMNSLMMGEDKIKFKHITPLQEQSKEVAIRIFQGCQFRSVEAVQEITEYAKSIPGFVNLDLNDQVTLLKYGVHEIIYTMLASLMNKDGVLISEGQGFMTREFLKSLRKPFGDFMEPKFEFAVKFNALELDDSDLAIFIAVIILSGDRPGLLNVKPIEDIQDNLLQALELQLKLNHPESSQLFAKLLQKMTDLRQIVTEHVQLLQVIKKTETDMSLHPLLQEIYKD

PPARγ = target: T2, PPARγ (Homo sapiens, UniProt P37231); experiment: SPR-based Biacore binding assay on immobilized PPARγ; settings: injected 0.5 to 10 µM
T2 sequence (P37231 1-505): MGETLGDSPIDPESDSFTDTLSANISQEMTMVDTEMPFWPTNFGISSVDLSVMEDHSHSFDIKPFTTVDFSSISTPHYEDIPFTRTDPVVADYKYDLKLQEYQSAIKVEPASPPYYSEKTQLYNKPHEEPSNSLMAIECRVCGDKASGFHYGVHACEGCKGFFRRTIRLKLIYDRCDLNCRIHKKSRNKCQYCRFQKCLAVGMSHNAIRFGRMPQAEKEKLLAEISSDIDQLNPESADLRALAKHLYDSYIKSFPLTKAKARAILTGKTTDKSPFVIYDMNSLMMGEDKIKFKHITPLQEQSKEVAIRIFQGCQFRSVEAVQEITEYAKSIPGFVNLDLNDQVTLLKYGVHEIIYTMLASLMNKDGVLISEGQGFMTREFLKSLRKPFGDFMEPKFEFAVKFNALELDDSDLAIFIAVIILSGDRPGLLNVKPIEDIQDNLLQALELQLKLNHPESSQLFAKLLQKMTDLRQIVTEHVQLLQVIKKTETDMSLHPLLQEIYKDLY
Description: […]. SPR analyses were carried out on a BIACORE 3000 instrument (GE-Healthcare). A PPARγ, surface was generated using a research-grade CM5 sensor chips (GE Healthcare). The protein (100 µg/ml in 10 mM CH3COONa, pH 5.0) was immobilized using a standard amine-coupling protocol, to obtain densities of 4 kRU. Testing compounds were dissolved in 100% DMSO to obtain 10 mM solutions, and then diluted in PBS containing variable amounts of DMSO, achieving a final DMSO concentration of 0.1%. For each molecule a five-point concentration series (0.5 µM, 1 µM, 2,5 µM, 5 µM and 10 µM) was set up. SPR experiments and data elaboration were carried out as reported elsewhere.

[1] = system: NIH/3T3 mouse embryonic fibroblast cells; experiment: XTT cytotoxicity assay on NIH/3T3 cells; settings: for cell viability compared with Rosiglitazone: especially at 316 and 1000 μM
Description: XTT is reduced to soluble formazan by this enzyme and formazan is quantified and directly proportional to the number of viable cells. […] NIH/3T3 cells were seeded at 1 × 10^4 cells into each well of 96-well plates. […] The XTT assay (Xenometrix, Allschwil, Switzerland) was performed according to the manufacturer’s instructions, after 24 h incubation with the compounds. The absorbance was determined after 2 h incubation at 480 nm with a reference wavelength of 680 nm using a microplate reader (BioTek, USA). […] The stock solutions of the compounds were prepared in DMSO and further dilutions were made with fresh culture medium. The final DMSO concentration was under 0.1%. Rosiglitazone and Pioglitazone were used as positive controls. All data were obtained from 3 independent experiments in quadruplicates.

[2] = Human liver microsomal stability; type: in vitro ADME; settings: 37.5 °C, LM conc 0.4 mg/mL; for half-life: read-out: T1/2,int
Description: The oral bioavailability of compounds in terms of Caco-2 and MDCK-II permeability and the P-glycoprotein (P-gp) efflux ratio were assessed. The in vitro intrinsic half-life (T1/2,int) and the apparent intrinsic clearance (CLint,app) of compounds were also measured after incubation with human liver microsomes at 37.5 °C[65]. […] Quantification was done by LC-MS/MS. P-gp substrate activity was assessed by the efflux ratio (the ratio of Papp in the B-to-A direction over that in the A-to-B direction). […] P-gp is an ATP-dependent transporter on the apical plasma membrane of enterocytes that functions to limit the entry of drugs into the cell.
Highly cleared compounds in vitro are likely to be rapidly cleared in vivo resulting in a short duration of action.

Compound	EC50 (human PPARγ (hPPARγ)) [µM]	Emax (human PPARγ (hPPARγ)) [%]	agonist activity on hPPARα, hPPARγ, hPPARβ/δ subtypes (human PPARγ (hPPARγ))	Kd (PPARγ) [µM]	IC50 ([1]; NIH/3T3 cells, XTT, 24 h incubation) [µM]	CLint,app ([2]; human liver microsomes) [µL/min/mg]	T1/2,int ([2]; human liver microsomes) [min]	Emax (human PPARγ (hPPARγ); HepG2, read-out: Emax) [%]	IC50 ([1]; Mus musculus, NIH3T3, 24 h) [µM]	cell viability compared with Rosiglitazone ([1]; NIH/3T3 cells)	half-life ([2]; human liver microsomes) [min]	microsomal CLint ([2]; human, liver microsomes, read-out: CLint,app) [µL/min/mg]
CCCCNC(=O)CN1C(=O)S/C(=C\c2ccccc2)C1=O [1a]	7 ± 1.3	5.3 ± 0.3	weak to moderate selective activity towards PPARγ	38.3 ± 1.8	> 1000	169.81	10.20	–	–	–	–	–
CCN(CC)C(=O)CN1C(=O)S/C(=C\c2ccccc2)C1=O [1i]	9.6 ± 0.8	–	weak to moderate selective activity towards PPARγ	35.7 ± 2.6	–	–	–	23 ± 5	> 1000	significantly higher viability than Rosiglitazone	92.5	–
CCCCNC(=O)CN1C(=O)S/C(=C\c2ccc(Cl)cc2)C1=O [3a]	5.9 ± 0.6	–	selective activity towards PPARγ	32 ± 1.5	–	–	–	31.6 ± 1	966 ± 10	significantly higher viability than Rosiglitazone	53.3	32.5
